Laboratory results taken from patent US20070166317A1, “Microparticles” (priority 2003, published 2007).

Key:
[1] = system: CHO cells; assay: Cellular association of peptide modified latex microparticles, confocal microscopy, CHO cells; assay type: cell-based, Chinese Hamster; settings: 3 hours at 37° C., 10 ng peptide/μg Sigma carboxylate modified latex, 0.15 μg latex/μL of media, FIG. 4
Procedure: (§1) Latex (50 to 100 μL) was added to PBS (890 to 945 μL) followed by peptide solution (5 to 10 μL) and the resultant 1 mL solution mixed. The material was left to stand at room temperature for 2 hours and then dialysed over night against 2 L of PBS in the dark at 4° C. The particles were then recovered stored at 4° C. in the dark and used without further treatment.
(§2) CHO stock culture was grown in Ham's F12 media supplemented with 10% foetal bovine serum, glutamine (2 mM), fungizone (50 mg/ml) and pen-strep (0.1 mg/ml). Cells were seeded at 1 to 2×10^4 cell/cm^2 using 0.25% trypsin-EDTA and maintained in a humidified 5% CO2 atmosphere, at 37° C. and sub-cultured twice a week.
(§3) Prior (48 hr) to an experiment CHO or HFFF2 cells were plated at 2×10^4/cm^2 in an 8 well chamber slide, 0.7 cm^2 and 0.2 mL/chamber. One day before the experiment, media was replaced with a similar media but containing no lipids. On the day of the experiment, the cells for 4° C. incubation were chilled for 15 minutes prior to any additions. The wells were washed with 0.1 mL of phosphate buffered saline (PBS) and the synthetic LDL system in media added. The slides were then incubated for 1 or 3 hours at either 4° C. or 37° C. the latter in a humidified 5% CO2 atmosphere. […] The lens employed was ×20 PA with a numerical aperture of 0.75 and the data analysed using “Laser-sharp” software (Bio-Rad).

[2] = target: T1, LDL receptor (Homo sapiens, UniProt P01130); assay: Effect of anti-LDL receptor antibody on cellular association of peptide modified latex, normal fluorescent microscopy, HFFF-2 cells; assay type: cell-based; settings: 3 hours at 37° C., antibody 8 μg/mL, peptide on Sigma carboxylate modified latex, 0.15 μg latex/μL, FIG. 6
T1 construct: endogenous in cells; host or cells: HFFF-2 fibroblast cells (ECACC 86031405)
Procedure: as §1
as §2, with “HFFF2 stock” for “CHO stock”, “in Dulbecco's modified Eagle's” for “in Ham's F12”, “10% v/v” for “10%”, “at 2” for “at 1”, “to 3×10^4” for “to 2×10^4”
Prior (48 hr) to an experiment CHO or HFFF2 cells were plated at 2×10^4/cm^2 in an 8 well chamber slide, 0.7 cm^2 and 0.2 mL/chamber. One day before the experiment, media was replaced with a similar media but containing no lipids. On the date of the experiment, the cells for 4° C. incubation were chilled for 15 minutes prior to any additions. The wells were washed with 0.1 mL of phosphate buffered saline (PBS) and the synthetic LDL microparticle system, in media, added. The slides were then incubated for 1 or 3 hours at either 4° C. or 37° C. the latter in a humidified 5% CO2 atmosphere. […]

[3] = target: T1, LDL receptor; assay: Effect of anti-LDL receptor antibody on cellular association of peptide modified latex, confocal microscopy, HFFF-2 cells; assay type: cell-based; settings: 3 hours at 37° C., antibody 8 μg/mL, peptide on Fluoresbrite latex, 0.15 μg latex/μL, FIG. 5
Procedure: as §1
as §2, with “HFFF2 stock” for “CHO stock”, “in Dulbecco's modified Eagle's” for “in Ham's F12”, “10% v/v” for “10%”, “at 2” for “at 1”, “to 3×10^4” for “to 2×10^4”
as §3

T1 sequence (P01130 22-860): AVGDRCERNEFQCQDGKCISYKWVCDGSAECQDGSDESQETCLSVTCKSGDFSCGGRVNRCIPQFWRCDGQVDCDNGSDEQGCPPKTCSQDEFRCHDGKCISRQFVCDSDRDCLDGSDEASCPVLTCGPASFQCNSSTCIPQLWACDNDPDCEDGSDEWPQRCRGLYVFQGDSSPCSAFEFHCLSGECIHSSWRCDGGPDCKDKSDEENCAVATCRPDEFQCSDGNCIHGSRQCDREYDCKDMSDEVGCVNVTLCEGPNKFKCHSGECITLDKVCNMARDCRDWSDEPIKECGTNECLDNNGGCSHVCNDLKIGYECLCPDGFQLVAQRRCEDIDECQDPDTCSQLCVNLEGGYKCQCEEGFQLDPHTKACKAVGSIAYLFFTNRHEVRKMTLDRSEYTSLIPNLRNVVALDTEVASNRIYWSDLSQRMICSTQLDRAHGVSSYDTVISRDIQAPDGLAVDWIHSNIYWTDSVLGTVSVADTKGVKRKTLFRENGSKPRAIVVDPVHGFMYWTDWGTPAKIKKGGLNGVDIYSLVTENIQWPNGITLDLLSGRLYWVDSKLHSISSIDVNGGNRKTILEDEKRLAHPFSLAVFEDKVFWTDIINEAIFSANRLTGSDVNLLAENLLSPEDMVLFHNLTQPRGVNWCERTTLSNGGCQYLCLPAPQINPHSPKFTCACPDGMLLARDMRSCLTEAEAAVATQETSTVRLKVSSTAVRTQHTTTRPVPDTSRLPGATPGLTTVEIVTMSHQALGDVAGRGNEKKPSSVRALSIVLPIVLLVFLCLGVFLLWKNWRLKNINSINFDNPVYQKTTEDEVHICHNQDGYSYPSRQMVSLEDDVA

reduction of cellular association by anti-LDL receptor antibody (confocal microscopy) [3] | Substance | cellular association of peptide modified latex (rank order between peptides, fluorescence) [1] | reduction of cellular association by anti-LDL receptor antibody (normal fluorescent microscopy) [2]
 | peptide 3: Retinoic Acid-Tyr-Lys-Leu-Glu-Gly-Thr-Thr-Arg-Leu-Thr-Arg-Lys-Arg-Gly-Leu-Lys-Leu-Ala-Thr-Ala-Leu-Ser-Cholesterol ({retinoic acid}-YKLEGTTRLTRKRGLKLATALS-cholesterol) | increased cellular association for peptide 4 followed by peptide 3 and then peptide 1 | the reduction due to the presence of the antibody is clearly visible
the reduction is not as great | peptide 4: Pyrene Butyric Acid-Lys-Leu-Glu-Gly-Thr-Thr-Arg-Leu-Thr-Arg-Lys-Arg-Gly-Leu-Lys-Leu-Ala-Thr-Ala-Leu-Ser-Leu-Phe-Leu-Phe-Cholesterol ({pyrene butyric acid}-KLEGTTRLTRKRGLKLATALSLFLF-cholesterol) | increased cellular association for peptide 4 followed by peptide 3 and then peptide 1 | 
